Data: paper PMC4572361, “Connecting proteins with drug-like compounds: Open source drug discovery workflows with BindingDB and KNIME” (Database: The Journal of Biological Databases and Curation, 2015)
pIC50: −log10 of the molar value. Where two headings read alike, the source gives them in different places.

Target: T1, phospholipase A2
T1 construct: gene PLA2G1B; not described in the main text; reagent of the PubChem AID 588400 phospholipase counterscreen (possibly the PLA2 reporter enzyme of an ATG4B assay)
Experiment: phospholipase inhibition assay (as PubChem AID […])
Type: biochemical, Homo sapiens

SMILES | pIC50 (read-out: IC50) | pIC50 (read-out: no significant inhibition at concentrations up to 300 μM)
Cc1c(Cl)cccc1Nc1ccccc1C(=O)O [tolfenamic acid] | 4.70 | –
O=C(O)c1ccccc1Nc1cc(Cl)ccc1C(=O)O [lobenzarit] | – | < 3.52
